Columns and labels:
Format in all cases: cell-based
[1] = test system: Botrytis cinerea; assay: Inhibition test of mycelial growth against gray mold (YS liquid medium, 96-well microplate); settings: compound alone, 25° C., three days
Procedure: On a YS (yeast extract+sucrose) liquid culture medium, a certain amount of a chemical solution prepared such that a final concentration of each chemical became a concentration at which the test was carried out was mixed. 100 μL of each of the chemical-containing YS liquid culture media was aliquoted into each well of a 96-well microplate. Thereafter, 50 μL of a spore suspension of gray mold whose spore concentration had been prepared as shown in the following tables was aliquoted into each well and cultivated at 25° C. under a light-dark cycle (light period: 16 hours, dark period: 8 hours). Three days after the cultivation, an area of the well bottom covered by the propagated gray mold hyphae was microscopically examined to determine an inhibition rate of growth (%). The inhibition rate of growth was visually examined while defining an area covered by hyphae in a non-treated well as 100. For the non-treatment, a chemical-free YS liquid culture medium was used. In addition, an expected value of the inhibition rate calculated according to the Colby's formula in the same manner as that in the foregoing Test Example 1 was listed in parentheses of Tables 7 to 13.

[2] = test system: Rhizoctonia solani; assay: Inhibition test of mycelial growth against the genus Rhizoctonia (PSA plate); settings: compound alone, 20° C., 4 days
Procedure: A mycangium (diameter: 4 mm) obtained by precultivation was transplanted on PSA containing a chemical in a prescribed concentration and then cultured at room temperature of 20° C. for 4 days, followed by measuring a diameter of the grown mycangium to determine an inhibition rate of mycelial growth (%). In addition, an expected value of the inhibition rate calculated according to the Colby's formula in the same manner as that in the foregoing Test Example 1 was listed in parentheses of Tables 4 to 6.

[3] = test system: Pythium graminicola; assay: Inhibition test of mycelial growth against the genus Pythium (PSA plate); settings: compound alone, 20° C., 3 days
Procedure: A mycangium (diameter: 4 mm) obtained by precultivation was transplanted on PSA containing a chemical in a prescribed concentration and then cultured at room temperature of 20° C. for 3 days, followed by measuring a diameter of the grown mycangium to determine an inhibition rate of mycelial growth (%). In addition, an expected value of the inhibition rate was calculated according to the following Colby's formula and listed in parentheses of Tables 1 to 3. […] Colby's formula: x+y−xy/100 x: Inhibition rate of growth of the component (a) alone (%) y: Inhibition rate of growth of the component (b) alone (%)

[4] = Rhizoctonia solani, 96 h, 0.1 ppm, read-out: Inhibition Rate of Mycelial Growth against Rhizoctonia solani (%)
[5] = Rhizoctonia solani, 96 h, 1 ppm, read-out: Inhibition Rate of Mycelial Growth against Rhizoctonia solani (%)
[6] = Rhizoctonia solani, 96 h, 10 ppm, read-out: Inhibition Rate of Mycelial Growth against Rhizoctonia solani (%)
[7] = Pythium graminicola, 72 h, read-out: Inhibition Rate of Mycelial Growth against Pythium graminicola (%)
[8] = Pythium graminicola, 72 h, 10 ppm, read-out: Inhibition Rate of Mycelial Growth against Pythium graminicola (%)
[9] = Pythium graminicola, 72 h, 100 ppm, read-out: Inhibition Rate of Mycelial Growth against Pythium graminicola (%)
[10] = Botrytis cinerea, 72 h, read-out: Inhibition Rate of Mycelial Growth against Botrytis cinerea (%)
[11] = Botrytis cinerea, 72 h, 0.78 ppm, read-out: Inhibition Rate of Mycelial Growth against Botrytis cinerea (%)
[12] = Botrytis cinerea, 72 h, 1.56 ppm, read-out: Inhibition Rate of Mycelial Growth against Botrytis cinerea (%)

CO/C=C(/C(=O)OC)c1ccccc1COc1cccc(C(F)(F)F)n1 [picoxystrobin]
Inhibition Rate of Mycelial Growth against Botrytis cinerea (%) ([1]; 6.25 ppm): 1%
Inhibition Rate of Mycelial Growth against Botrytis cinerea (%) ([1]; 12.5 ppm): 2%
Inhibition Rate of Mycelial Growth against Botrytis cinerea (%) ([1]; 25 ppm): 3%

O=[N+]([O-])c1cc(C(F)(F)F)c(Cl)c([N+](=O)[O-])c1Nc1ncc(C(F)(F)F)cc1Cl [fluazinam, 3-chloro-N-(3-chloro-5-trifluoromethyl-2-pyridyl)-α,α,α-trifluoro-2,6-dinitro-p-toluidine]
inhibition at 0.1 ppm [2, 4]: 70%
inhibition at 1 ppm [2, 5]: 77%
inhibition at 10 ppm [2, 6]: 85%
inhibition at 100 ppm ([2]; Rhizoctonia solani, 96 h, 100 ppm, read-out: Inhibition Rate of Mycelial Growth against Rhizoctonia solani (%)): 87%
inhibition at 0.04 ppm ([1]; Botrytis cinerea, 72 h, 0.04 ppm, read-out: Inhibition Rate of Mycelial Growth against Botrytis cinerea (%)): 0%
inhibition at 0.08 ppm ([1]; Botrytis cinerea, 72 h, 0.08 ppm, read-out: Inhibition Rate of Mycelial Growth against Botrytis cinerea (%)): 0%
inhibition at 0.16 ppm ([1]; Botrytis cinerea, 72 h, 0.16 ppm, read-out: Inhibition Rate of Mycelial Growth against Botrytis cinerea (%)): 80%
inhibition at 0.1 ppm ([3]; Pythium graminicola, 72 h, 0.1 ppm, read-out: Inhibition Rate of Mycelial Growth against Pythium graminicola (%)): 32%
inhibition at 1 ppm [3, 7]: 48%
inhibition at 10 ppm [3, 8]: 60%
inhibition at 100 ppm [3, 9]: 66%

CO/N=C(/C(=O)OC)c1ccccc1COc1ccccc1C [kresoxim-methyl]
inhibition at 0.1 ppm [2, 4]: 30%
inhibition at 1 ppm [2, 5]: 39%
inhibition at 10 ppm [2, 6]: 42%
inhibition at 3.13 ppm ([1]; Botrytis cinerea, 72 h, 3.13 ppm, read-out: Inhibition Rate of Mycelial Growth against Botrytis cinerea (%)): 0%
inhibition at 6.25 ppm ([1]; Botrytis cinerea, 72 h, 6.25 ppm, read-out: Inhibition Rate of Mycelial Growth against Botrytis cinerea (%)): 1%
inhibition at 12.5 ppm ([1]; Botrytis cinerea, 72 h, 12.5 ppm, read-out: Inhibition Rate of Mycelial Growth against Botrytis cinerea (%)): 1%
inhibition at 1 ppm [3, 7]: 56%
inhibition at 10 ppm [3, 8]: 73%
inhibition at 100 ppm [3, 9]: 62%

CO/C=C(/C(=O)OC)c1ccccc1Oc1cc(Oc2ccccc2C#N)ncn1 [azoxystrobin]
Inhibition Rate of Mycelial Growth against Rhizoctonia solani (%) ([2]; 0.1 ppm): 4%
Inhibition Rate of Mycelial Growth against Rhizoctonia solani (%) ([2]; 1 ppm): 27%
Inhibition Rate of Mycelial Growth against Rhizoctonia solani (%) ([2]; 10 ppm): 41%
Inhibition Rate of Mycelial Growth against Botrytis cinerea (%) ([1]; 3.13 ppm): 0%
Inhibition Rate of Mycelial Growth against Botrytis cinerea (%) ([1]; 6.25 ppm): 0%
Inhibition Rate of Mycelial Growth against Botrytis cinerea (%) ([1]; 12.5 ppm): 1%
Inhibition Rate of Mycelial Growth against Pythium graminicola (%) ([3]; 10 ppm): 89%
Inhibition Rate of Mycelial Growth against Pythium graminicola (%) ([3]; 100 ppm): 100%

CNC(=O)/C(=N/OC)c1ccccc1COc1cc(C)ccc1C [dimoxystrobin]
Inhibition Rate of Mycelial Growth against Botrytis cinerea (%) ([1]; 0.78 ppm): 0%
Inhibition Rate of Mycelial Growth against Botrytis cinerea (%) ([1]; 1.56 ppm): 0%
Inhibition Rate of Mycelial Growth against Botrytis cinerea (%) ([1]; 3.13 ppm): 0%

COC(=O)N(OC)c1ccccc1COc1ccn(-c2ccc(Cl)cc2)n1 [pyraclostrobin]
inhibition at 0.1 ppm [2, 4]: 26%
inhibition at 1 ppm [2, 5]: 55%
inhibition at 10 ppm [2, 6]: 67%
inhibition at 0.39 ppm [1, 10]: 0%
inhibition at 0.78 ppm [1, 11]: 1%
inhibition at 1.56 ppm [1, 12]: 5%
inhibition at 1 ppm [3, 7]: 83%
inhibition at 10 ppm [3, 8]: 100%
inhibition at 100 ppm [3, 9]: 100%

CNC(=O)/C(=N/OC)c1ccccc1Oc1ccccc1 [metominostrobin]
inhibition at 25 ppm ([1]; Botrytis cinerea, 72 h, 25 ppm, read-out: Inhibition Rate of Mycelial Growth against Botrytis cinerea (%)): 0%
inhibition at 50 ppm ([1]; Botrytis cinerea, 72 h, 50 ppm, read-out: Inhibition Rate of Mycelial Growth against Botrytis cinerea (%)): 1%
inhibition at 100 ppm ([1]; Botrytis cinerea, 72 h, 100 ppm, read-out: Inhibition Rate of Mycelial Growth against Botrytis cinerea (%)): 3%

CON=C(C(=O)OC)c1ccccc1CON=C(C)c1cccc(C(F)(F)F)c1 [trifloxystrobin]
inhibition at 0.39 ppm [1, 10]: 0%
inhibition at 0.78 ppm [1, 11]: 0%
inhibition at 1.56 ppm [1, 12]: 0%

Source: patent US9167815B2, “Agricultural or horticultural fungicide composition and method for controlling plant pathogen” (ISHIHARA SANGYO KAISHA, LTD., priority 2011, dated 2015)
